In one assay the target is T1, MLLT1 YD (Homo sapiens, UniProt Q03111).
T1 construct: made in house; host or cells: E. coli Rosetta
T1 sequence (Q03111 1-138 limits assumed): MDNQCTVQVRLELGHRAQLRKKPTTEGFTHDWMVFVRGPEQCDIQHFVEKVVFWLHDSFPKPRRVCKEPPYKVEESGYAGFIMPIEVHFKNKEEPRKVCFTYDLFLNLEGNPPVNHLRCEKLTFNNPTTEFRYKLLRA
Description: AlphaScreen (AS) assay, MLLT1 YEATS domain. The assay is classed as binding. Here is the method: II.IV Protein Expression and Purification
Human bromodomains were cloned, expressed and purified as previously described. The cloning, expression and purification of human YEATS domains are described as follows; Sequences for the wild type YEATS domains of MLLT1, MLLT3, GAS41 and YEATS2 were cloned into expression vectors (Table S1). E. coli Rosetta cells were grown in TB medium at 37°C. Overexpression was induced after five hours by addition of IPTG to a final concentration of 0.4 mM and cells were incubated at 17°C overnight. Cells were harvested by centrifugation and the cell pellet was resuspended in cold binding buffer (50 mM Tris at pH 7.5, 500 mM NaCl, 20 mM imidazole, 2 mM DTT) on a magnetic stirring plate at 4°C. The suspension was lysed using an Avestin EmulsiFlex-C5 homogeniser (1 pass without pressure, four passes with pressure between 1000-1500 bar). The lysate was clarified via centrifugation at 16,000 rpm at 4°C for 1 hour (JLA-16 rotor in Beckmann Coulter Avanti J- […]
The supernatant was loaded onto a standard NiNTA column (HisTrap
FF, 5 ml, GE Healthcare Lifesciences) on an ÄKTAxpress system (GE). After washing with binding buffer, the target protein was eluted at 300 mM imidazole. The eluted peak fractions were pooled and concentrated to 5 ml (Amicon concentrators, 10 kDa molecular weight cut off (MWCO)) and then separated via size exclusion chromatography (buffered with 20 mM Tris at pH 7.5, 500 mM NaCl, 2 mM DTT) using a GE Superdex 75 column on an […]
(NanoDrop ND-1000 Spectrophotometer) and protein identity was verified via SDS-PAGE and LC/MS. Pooled fractions were then again concentrated to at least 2 mg/ml and stored at […]
(§1) (1 picture or pasted object on this page, not shown here)

For assay [1], the target named is T2, endogenous MLLT1 in MV4;11 cells (Homo sapiens, UniProt Q03111).
T2 construct: with endogenous MLLT1 in MV4;11 cells; endogenous in cells; host or cells: MV4;11
T2 sequence (Q03111 whole entry): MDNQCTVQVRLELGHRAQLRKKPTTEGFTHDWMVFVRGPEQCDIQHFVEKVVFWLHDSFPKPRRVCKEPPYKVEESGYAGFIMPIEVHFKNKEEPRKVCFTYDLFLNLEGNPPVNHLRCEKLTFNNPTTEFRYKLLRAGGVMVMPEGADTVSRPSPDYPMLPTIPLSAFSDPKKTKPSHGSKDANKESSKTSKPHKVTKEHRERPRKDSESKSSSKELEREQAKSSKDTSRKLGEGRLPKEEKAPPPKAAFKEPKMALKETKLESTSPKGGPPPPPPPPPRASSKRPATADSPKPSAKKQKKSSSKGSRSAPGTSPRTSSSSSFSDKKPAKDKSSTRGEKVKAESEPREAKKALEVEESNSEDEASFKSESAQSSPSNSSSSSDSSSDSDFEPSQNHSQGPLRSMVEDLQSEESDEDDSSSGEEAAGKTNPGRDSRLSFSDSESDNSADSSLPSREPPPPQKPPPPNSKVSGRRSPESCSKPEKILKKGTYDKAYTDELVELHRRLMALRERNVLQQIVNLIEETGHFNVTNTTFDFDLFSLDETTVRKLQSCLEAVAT
Description: Cellular thermal shift assay (CETSA), MV4;11 cells. The conditions noted are these: up to 10 μM. Format: cell-based. Here is the method:
Supplementary Table 2. Thermal stabilisation of compound 1, 92 and Bromosporine with recombinant human bromodomain proteins. *50 µM compound concentration. †10 µM compound […]
II.VIII Cellular Thermal Shift Assay[6]
HEK293 and MV4;11 cells were cultured at 37 °C in a humidified 5% CO2 atmosphere in DMEM Medium containing 10% FBS, respectively. Cells were grown until approximately […]
DMSO final concentrati on) for 30 minutes. Cells were then collected, washed with PBS, transferred in PCR tubes, and pelleted by centrifugation (300 g, 3 min, RT.) The PBS was removed, and the cell pellets heated at the indicated temperature for 3 minutes in a PCR machine (UNO96 , VMR) and then placed on ice. Lysis buffer (50 mM Tris pH 7.5, 0.8% v/v NP-40, 5% v/v glycerol, 1.5 mM MgCl2, 100 mM NaCl, 25 mM NaF, 1mM Na3VO4, 1mM PMSF, 1mM DTT, 10 μg/mL TLCK, 1 μg/mL Leupeptin, 1 μg/mL Aprotinin, 1 μg/mL soy bean trypsin, ≥250 units/ mL Benzonase) was added and the cells lysed by 3 freeze -thaw cycles in liquid nitrogen. Aggregated proteins were removed by centrifugation (17000 g, 20 min, 4 °C) and the protein concentration of the retained soluble fraction determined. 4× sample loading buffer (Bio-Rad) containing 20% v/v DTT was added and samples were heated for 6 min at 90 °C prior to separation by SDS -PAGE. […]

Another assay concerns MV4;11 AML cells. Description: qPCR gene expression in MV4;11 cells. Format: cell-based, human. The settings on record: 1 μM, 72 h. Here is the method:
II.XII Analysis of gene expression by quantitative polymerase chain reaction (qPCR) […]
MV4;11 cells were cultured at 37 °C in a humidified 5% CO2 atmosphere in RPMI medium containing 10% FBS and 1% L-glutamine. Cells were seeded at a density of 2 x 10^6 cells/well in 6 well plates pre-coated in polyhema, to enable suspension culture. Cells were […]
and washing with PBS, RNA was extracted from cells using RNeasy Mini Kit (Qiagen), following the manufacturer’s protocol. Total RNA was quantified by Nanodrop and 500 ng of RNA was converted to cDNA using GoScript Reverse Transcription System (Promega). The final cDNA products were quantified by QPCR using FAM dye-labelled Taqman primers and probe sets (see table below). Data was analysed using the comparative cycle threshold (CT) method where CT values were normalised by subtracting that from an endogenous housekeeping gene (VIC dye-labelled ACTB). The gene expression levels from compound-treated cells are presented as relative to those of DMSO treated control cells. Statistical analyses were carried out using two-way ANOVA (GraphPad Prism 7).
ACTB (Beta Actin) Endogenous Control 4326315E
Supplementary Table 4. Taqman Gene Expression Assays (Life Technologies). Taqman MGB probes have 5’ FAM reporter dye (or VIC) and 3’ non-fluorescent quencher. […]

For a further assay, the target named is T3, MLLT3 (Homo sapiens, UniProt P42568).
T3 construct: in full length MLLT3 N-terminal NanoLuc, Histone; host or cells: HEK293
T3 sequence (P42568 1-568): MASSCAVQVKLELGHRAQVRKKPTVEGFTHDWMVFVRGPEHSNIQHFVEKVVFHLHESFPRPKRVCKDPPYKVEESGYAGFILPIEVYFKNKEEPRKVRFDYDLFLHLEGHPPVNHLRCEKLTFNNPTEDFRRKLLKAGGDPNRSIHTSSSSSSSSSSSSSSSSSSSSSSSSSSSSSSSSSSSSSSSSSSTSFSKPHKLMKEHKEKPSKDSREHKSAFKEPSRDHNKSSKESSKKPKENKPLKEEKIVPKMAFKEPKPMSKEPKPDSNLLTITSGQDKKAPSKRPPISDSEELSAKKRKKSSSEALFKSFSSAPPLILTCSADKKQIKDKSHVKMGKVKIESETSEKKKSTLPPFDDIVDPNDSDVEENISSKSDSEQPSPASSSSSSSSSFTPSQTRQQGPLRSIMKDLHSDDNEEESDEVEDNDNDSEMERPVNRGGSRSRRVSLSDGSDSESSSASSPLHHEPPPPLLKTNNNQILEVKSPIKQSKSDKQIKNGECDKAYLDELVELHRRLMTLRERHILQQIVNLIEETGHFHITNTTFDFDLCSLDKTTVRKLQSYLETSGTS
Description: NanoBRET assay, full-length MLLT3-NanoLuc / histone H3.3-HaloTag in HEK293 cells. The assay is classed as cell-based. The conditions noted are these: 24 h, in the presence of 2.5 μM SAHA. Here is the method: II.V NanoLuciferase Bioluminescent Resonance Energy Transfer (NanoBRET) Assay[2]
HEK293 cells ([…]) were plated in each well of a 6-well plate after 6 h cells were co-transfected with Histone H3.3-HaloTag (NM_002107) and a NanoLuciferase fusion of MLLT1 or MLLT3 (WT sequences from Promega HaloTag® human ORF in pFN21A) at a 1:500 and 1:10 (NanoLuc® to HaloTag®) ratio respectively with FuGENE HD transfection regent. Sixteen hours post-transfection, cells were collected and exchanged into media containing phenol red-free DMEM and 4% FBS in the absence (control sample) or the presence (experimental sample) of 100 nM NanoBRET 618 fluorescent ligand (Promega).
Cell density was adjusted to 2 x 10^5 cells/mL and then seeded 100 µL/well in a white 96-well plate (Corning Costar #3917). Compounds were then added directly to media (in the presence of SAHA 2.5 µM) at final concentrations 0.01-30 μM or an equivalent amount of DMSO as a vehicle control, and the plates were incubated for 24 h at 37 °C in the presence […]
NanoBRET Nano-Glo substrate (Promega) was added to both control and experimental samples at a final concentration of 10 µM. Readings were performed within 5 minutes using a ClarioSTAR (BMG labtech) equipped with LP 480 and 610 nm filters. A corrected BRET ratio was calculated and is defined as the ratio of the emission at 610 nm/[…] for experimental samples minus the emission at 6 10 nm/640 nm for control samples (not incubated with NanoBRET fluorescent ligand). BRET ratios are expressed as milliBRET units (mBU), where 1 mBU corresponds to the corrected BRET ratio multiplied by 1000.
3.3 C-terminal HaloTag in HEK293 cells. Treatment with SAHA (2.5 µM) alone increases MLLT3- […]
dependent manner. Mean±SD of BRET ratio (mBU), n=4 technical replicates.
(also on this page, place not known: 5) -well H3.3 -HaloTag pFN21A ) ( NanoLuc® H aloTag®) post -transfection, red -free Nano -Glo 10 5 6 10 6 10 l igand). cells . […]

The target of a further assay is T4, MLLT3 YD (Homo sapiens, UniProt P42568).
T4 construct: made in house; host or cells: E. coli Rosetta
Description: Isothermal titration calorimetry (ITC), MLLT3 YD. Format: binding. Here is the method: Supplementary Table 1. AlphaScreen selectivity screen of compound 92 over other acyllysine […]
II.III Isothermal Titration Calorimetry (ITC)
Experiments were carried out on a Nano -ITC Standard Volume Instrument (TA Instruments).
All experiments were carried out at 25 °C in 20 mM HEPES pH 7.5, 150 mM NaCl, 0.5 mM TCEP and 5% glycerol. Protein soluti ons were buffer exchanged by gel filtration. The titrations were conducted using an initial injection of 2 μL followed by 32 injections of 8 μL.
Background dilution heat was subtracted from each experiment. Thermodynamic parameters […]
changes in free energy, enthalpy and entropy respectively. Independent single site binding models were employed in data analysis.
(also on this page, place not known: ac yllysine Nano-ITC -T 1/ KB. ΔH Molar&ratio&[injectant/cell] Time&[s] Corrected&Heat&Rate&[ucal/s] Experiment&1 K Experiment&2 K K)
as §1

Regarding `COc1ccccc1C(=O)Nc1ccc2[nH]c(CN3CCCCC3)nc2c1` [Compound 69], on MLLT1 YD, the IC50 is more than 20000 nM. For `CC1CCN(Cc2nc3cc(NC(=O)c4ccc5c(cnn5C)c4)ccc3[nH]2)C1` (stereo not shown) [Compound 89], half-maximal inhibition against MLLT1 YD (IC50) required 600 ± 460 nM. Same read-out and setting: the result for `O=C(Nc1ccc2[nH]c(CN3CCCCC3)nc2c1)c1ccccc1Cl` [Compound 68] reads more than 20000 nM. Regarding `Cn1ncc2cc(C(=O)Nc3ccc4[nH]c(CN5CCCCC5)nc4c3)ccc21` [Compound 79], at MLLT1 YD, inhibition was half-maximal at 1600 ± 540 nM (IC50). Same read-out and setting: the result for `CCC1CCCN1Cc1nc2cc(NC(=O)c3ccc4c(cnn4C)c3)ccc2[nH]1` (stereo not shown) [Compound 87] reads 300 ± 60 nM; that for `O=C(Nc1ccc2[nH]c(CN3CCCCC3)nc2c1)c1cccc(OC(F)(F)F)c1` [Compound 70], more than 20000 nM.

Take `O=C(Nc1ccc2[nH]c(CN3CCCCC3)nc2c1)c1ccc(-n2ccnc2)cc1` [Compound 77]: the IC50 on MLLT1 YD stood at 1000 ± 590 nM. Consider `C[C@@H]1C[C@H](C)CN(Cc2nc3cc(NC(=O)c4ccc5c(cnn5C)c4)ccc3[nH]2)C1` [Compound 82], for which the half-maximal inhibitory concentration (IC50) at MLLT1 YD is 5700 ± 2400 nM. On the same count and under the same terms, in the case of `CC(c1nc2cc(NC(=O)c3ccc(Cl)cc3)ccc2[nH]1)N1CCCCC1` (stereo not shown) [Compound 81] it was more than 20000 nM; in that of `Cc1ccc(C(=O)Nc2ccc3[nH]c(CN4CCCCC4)nc3c2)cc1C` [Compound 72], 5500 ± 60 nM. On the same count and under the same terms, the result for `CC1CCCN1Cc1nc2cc(NC(=O)c3ccc(Cl)cc3)ccc2[nH]1` (stereo not shown) [Compound 85] reads 330 ± 110 nM; that for `O=C(Nc1ccc2[nH]c(CCN3CCCCC3)nc2c1)c1ccc(Cl)cc1` [Compound 84], more than 20000 nM. In the case of `COCC1CCCN1Cc1nc2cc(NC(=O)c3ccc4c(cnn4C)c3)ccc2[nH]1` (stereo not shown) [Compound 88], half-maximal inhibition against MLLT1 YD (IC50) required 970 ± 470 nM. The same measure, in the same setting: the result for `C[C@@H]1CCC[C@H](C)N1Cc1nc2cc(NC(=O)c3ccc(Cl)cc3)ccc2[nH]1` [Compound 80] reads more than 20000 nM.

For the molecule `CC1CCN(Cc2nc3cc(NC(=O)c4ccccc4)ccc3[nH]2)CC1` [Compound 83], at MLLT1 YD, the IC50 is more than 20000 nM.

For `Cn1ncc2cc(C(=O)Nc3ccc4[nH]c(CN5C[C@H]6C[C@H]6C5)nc4c3)ccc21` [Compound 86], at MLLT1 YD, the IC50 worked out at 1400 ± 860 nM. On MLLT1 YD, `CC1CCN(Cc2nc3cc(NC(=O)c4ccc5c(cnn5C)c4)ccc3[nH]2)C1` (stereo not shown) [Compound 90] came in with an IC50 of 730 ± 590 nM.

Turning to `C[C@@H]1CCCN1Cc1nc2cc(NC(=O)c3ccc4c(cnn4C)c3)ccc2[nH]1` [Compound 91], the “thermal stabilisation of MLLT1 (CETSA)” value in assay [1] is on record as “no thermal stabilisation”. The “gene expression of MYC, MPO, DDN, CTSG, CD86 (qPCR)” value in the assay on MV4;11 AML cells is listed as “diminished cell activity”. Besides, the IC50 on MLLT3 came to 5800 ± 70 nM. Besides, on MLLT3 YD, the Kd was determined as 540 nM.

The molecule `COc1ccc(C(=O)Nc2ccc3[nH]c(CN4CCCCC4)nc3c2)cc1` [Compound 74] yielded an IC50 at MLLT1 YD of 6400 ± 650 nM.

The values are drawn from paper PMC6348381, “Discovery of an MLLT1/3 YEATS Domain Chemical Probe” (Angewandte Chemie (International Ed. in English), 2018).
